# ChEMBL document CHEMBL1201862, “PubChem BioAssay data set” (2004)
#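 Results reflect a 48-hour exposure of cells in 96-well plates to compound at five concentrations. GI50: concentration for 50% inhibition of growth.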 Active and inactive are the calls of the source. Rule as the data show it: active = GI50 up to about 1.1 µM and inactive = higher.
# How the values were obtained:
# Assay in all cases: NCI anticancer screen, dose series, 48 h
# 786-0 = tested on: 786-0
# A498 = tested on: A498
# A549 = tested on: A549
# BT-549 = tested on: BT-549
# CAKI-1 = tested on: CAKI-1
# COLO 205 = tested on: COLO 205
# DU-145 = tested on: DU-145
# EKVX = tested on: EKVX
# HCC 2998 = tested on: HCC 2998
# HCT-116 = tested on: HCT-116
# HCT-15 = tested on: HCT-15
# HL-60 = tested on: HL-60
# HOP-92 = tested on: HOP-92
# HT-29 = tested on: HT-29
# Hs-578T = tested on: Hs-578T
# IGROV-1 = tested on: IGROV-1
# K562 = tested on: K562
# KM12 = tested on: KM12
# LOX IMVI = tested on: LOX IMVI
# M14 = tested on: M14
# MCF7 = tested on: MCF7
# MDA-MB-231 = tested on: MDA-MB-231
# MDA-MB-435 = tested on: MDA-MB-435
# MDA-N = tested on: MDA-N
# MOLT-4 = tested on: MOLT-4
# Malme-3M = tested on: Malme-3M
# NCI-H226 = tested on: NCI-H226
# NCI-H460 = tested on: NCI-H460
# NCI-H522 = tested on: NCI-H522
# NCI/ADR-RES = tested on: NCI/ADR-RES
# OVCAR-3 = tested on: OVCAR-3
# OVCAR-4 = tested on: OVCAR-4
# OVCAR-5 = tested on: OVCAR-5
# OVCAR-8 = tested on: OVCAR-8
# PC-3 = tested on: PC-3
# RPMI-8226 = tested on: RPMI-8226
# RXF 393 = tested on: RXF 393
# SF-268 = tested on: SF-268
# SF-539 = tested on: SF-539
# SK-MEL-28 = tested on: SK-MEL-28
# SK-MEL-2 = tested on: SK-MEL-2
# SK-MEL-5 = tested on: SK-MEL-5
# SK-OV-3 = tested on: SK-OV-3
# SN12C = tested on: SN12C
# SNB-19 = tested on: SNB-19
# SNB-75 = tested on: SNB-75
# SR = tested on: SR
# SW-620 = tested on: SW-620
# T47D = tested on: T47D
# TK-10 = tested on: TK-10
# U-251 = tested on: U-251
# UACC-257 = tested on: UACC-257
# UACC-62 = tested on: UACC-62
# UO-31 = tested on: UO-31
# ACHN = tested on: ACHN
# CCRF-CEM = tested on: CCRF-CEM
# HOP-62 = tested on: HOP-62
# NCI-H23 = tested on: NCI-H23
smiles,measurement,setting,value
CCOC(=O)CCC(NC(=O)c1ccc(Nc2nc3ccccc3nc2C(=O)OCC)s1)C(=O)OCC (centres undefined),GI50,786-0,21.7 µM (inactive)
same,GI50,A498,> 100 µM (inactive)
same,GI50,A549,88.1 µM (inactive)
same,GI50,BT-549,46 µM (inactive)
same,GI50,CAKI-1,81.3 µM (inactive)
same,GI50,COLO 205,> 100 µM (inactive)
same,GI50,DU-145,> 100 µM (inactive)
same,GI50,EKVX,> 100 µM (inactive)
same,GI50,HCC 2998,> 100 µM (inactive)
same,GI50,HCT-116,> 100 µM (inactive)
same,GI50,HCT-15,> 100 µM
same,GI50,HL-60,36.6 µM (inactive)
same,GI50,HOP-92,> 100 µM (inactive)
same,GI50,HT-29,> 100 µM (inactive)
same,GI50,Hs-578T,56.4 µM (inactive)
same,GI50,IGROV-1,> 100 µM (inactive)
same,GI50,K562,> 100 µM (inactive)
same,GI50,KM12,85.1 µM (inactive)
same,GI50,LOX IMVI,> 100 µM (inactive)
same,GI50,M14,> 100 µM (inactive)
same,GI50,MCF7,> 100 µM (inactive)
same,GI50,MDA-MB-231,67.1 µM (inactive)
same,GI50,MDA-MB-435,> 100 µM (inactive)
same,GI50,MDA-N,> 100 µM (inactive)
same,GI50,MOLT-4,> 100 µM (inactive)
same,GI50,Malme-3M,> 100 µM (inactive)
same,GI50,NCI-H226,21.1 µM (inactive)
same,GI50,NCI-H460,> 100 µM (inactive)
same,GI50,NCI-H522,> 100 µM (inactive)
same,GI50,NCI/ADR-RES,19.9 µM (inactive)
same,GI50,OVCAR-3,> 100 µM (inactive)
same,GI50,OVCAR-4,37.2 µM (inactive)
same,GI50,OVCAR-5,> 100 µM (inactive)
same,GI50,OVCAR-8,19.5 µM (inactive)
same,GI50,PC-3,> 100 µM (inactive)
same,GI50,RPMI-8226,> 100 µM (inactive)
same,GI50,RXF 393,66.1 µM (inactive)
same,GI50,SF-268,98.4 µM (inactive)
same,GI50,SF-539,63.4 µM (inactive)
same,GI50,SK-MEL-28,> 100 µM (inactive)
same,GI50,SK-MEL-2,> 100 µM (inactive)
same,GI50,SK-MEL-5,> 100 µM (inactive)
same,GI50,SK-OV-3,> 100 µM (inactive)
same,GI50,SN12C,> 100 µM (inactive)
same,GI50,SNB-19,95.1 µM (inactive)
same,GI50,SNB-75,> 100 µM (inactive)
same,GI50,SR,> 100 µM (inactive)
same,GI50,SW-620,> 100 µM (inactive)
same,GI50,T47D,> 100 µM (inactive)
same,GI50,TK-10,> 100 µM (inactive)
same,GI50,U-251,> 100 µM (inactive)
same,GI50,UACC-257,> 100 µM (inactive)
same,GI50,UACC-62,59.2 µM (inactive)
same,GI50,UO-31,> 100 µM (inactive)
O=c1cnn(C/C=C/CO)c(=O)[nH]1,GI50,A498,> 100 µM (inactive)
same,GI50,A549,> 100 µM (inactive)
same,GI50,ACHN,> 100 µM (inactive)
same,GI50,BT-549,> 100 µM (inactive)
same,GI50,CAKI-1,> 100 µM (inactive)
same,GI50,CCRF-CEM,> 100 µM (inactive)
same,GI50,COLO 205,> 100 µM (inactive)
same,GI50,DU-145,> 100 µM (inactive)
same,GI50,EKVX,> 100 µM (inactive)
same,GI50,HCC 2998,> 100 µM (inactive)
same,GI50,HCT-15,> 100 µM
same,GI50,HL-60,> 100 µM (inactive)
same,GI50,HOP-62,> 100 µM (inactive)
same,GI50,HOP-92,> 100 µM (inactive)
same,GI50,Hs-578T,> 100 µM (inactive)
same,GI50,IGROV-1,> 100 µM (inactive)
same,GI50,K562,> 100 µM (inactive)
same,GI50,KM12,> 100 µM (inactive)
same,GI50,LOX IMVI,28.3 µM (inactive)
same,GI50,M14,> 100 µM (inactive)
same,GI50,MCF7,> 100 µM (inactive)
same,GI50,MDA-MB-231,> 100 µM (inactive)
same,GI50,MDA-MB-435,> 100 µM (inactive)
same,GI50,MDA-N,> 100 µM (inactive)
same,GI50,Malme-3M,> 100 µM (inactive)
same,GI50,NCI-H226,> 100 µM (inactive)
same,GI50,NCI-H23,> 100 µM (inactive)
same,GI50,NCI-H460,> 100 µM (inactive)
same,GI50,NCI-H522,> 100 µM (inactive)
same,GI50,NCI/ADR-RES,> 100 µM (inactive)
same,GI50,OVCAR-3,> 100 µM (inactive)
same,GI50,OVCAR-5,> 100 µM (inactive)
same,GI50,OVCAR-8,> 100 µM (inactive)
same,GI50,PC-3,> 100 µM (inactive)
same,GI50,RPMI-8226,> 100 µM (inactive)
same,GI50,RXF 393,> 100 µM (inactive)
same,GI50,SF-268,> 100 µM (inactive)
same,GI50,SK-MEL-28,> 100 µM (inactive)
same,GI50,SK-MEL-2,> 100 µM (inactive)
same,GI50,SK-MEL-5,> 100 µM (inactive)
same,GI50,SN12C,> 100 µM (inactive)
same,GI50,SNB-19,> 100 µM (inactive)
same,GI50,SNB-75,> 100 µM (inactive)
same,GI50,SR,> 100 µM (inactive)
same,GI50,SW-620,> 100 µM (inactive)
same,GI50,T47D,> 100 µM (inactive)
same,GI50,TK-10,> 100 µM (inactive)
same,GI50,U-251,> 100 µM (inactive)
same,GI50,UACC-257,> 100 µM (inactive)
same,GI50,UO-31,> 100 µM (inactive)
